Assays:
Assay type in all cases: biochemical
human GST-CLK1 = target: T1, human GST-CLK1 (Homo sapiens, UniProt P49759); experiment: GST-CLK1 enzyme inhibition, ADP-Glo kinase assay; details: ATP 10 μM, GST-CLK1 129-end
T1 construct: purified human GST-CLK1 (129-end, SignalChem) enzyme; purchased SignalChem
In short: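 Human GST-CLK1 (129-end, 3 ng) reacted with substrate and 10 μM ATP for 1 h at 25° C in 40 mM Tris-HCl pH 7.4, 20 mM MgCl2, 0.5 mg/mL BSA, 50 μM DTT. ADP-Glo luminescence was normalised to solvent control; IC50 (nM) from 3 data sets.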

human GST-DYRK1A = target: T2, human GST-DYRK1A (Homo sapiens, UniProt Q13627); experiment: GST-DYRK1A enzyme inhibition, ADP-Glo kinase assay; details: ATP 10 μM, GST-DYRK1A full length, read-out: DYRK1 IC50
T2 construct: purified human GST-DYRK1A (full length, Thermo Scientifics) enzyme; purchased Thermo Scientifics
In short: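 Full-length human GST-DYRK1A (10 ng) with 10 μM ATP and specific substrate in 40 mM Tris-HCl pH 7.4, 20 mM MgCl2, 0.5 mg/mL BSA, 50 μM DTT, 1 h at 25 °C. ADP formation read by ADP-Glo luminescence relative to solvent control; IC50 from three data sets.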

LRRK2 (G2019S) = LRRK2 (G2019S) (Homo sapiens, UniProt Q5S007, G2019S); experiment: LRRK2 G2019S enzyme inhibition, ADP-Glo kinase assay; parameters: purchased SignalChem L10-12GG; details: ATP 25 μM
LRRK2 (G2019S), sequence (Q5S007 970-2527 G2019S limits assumed): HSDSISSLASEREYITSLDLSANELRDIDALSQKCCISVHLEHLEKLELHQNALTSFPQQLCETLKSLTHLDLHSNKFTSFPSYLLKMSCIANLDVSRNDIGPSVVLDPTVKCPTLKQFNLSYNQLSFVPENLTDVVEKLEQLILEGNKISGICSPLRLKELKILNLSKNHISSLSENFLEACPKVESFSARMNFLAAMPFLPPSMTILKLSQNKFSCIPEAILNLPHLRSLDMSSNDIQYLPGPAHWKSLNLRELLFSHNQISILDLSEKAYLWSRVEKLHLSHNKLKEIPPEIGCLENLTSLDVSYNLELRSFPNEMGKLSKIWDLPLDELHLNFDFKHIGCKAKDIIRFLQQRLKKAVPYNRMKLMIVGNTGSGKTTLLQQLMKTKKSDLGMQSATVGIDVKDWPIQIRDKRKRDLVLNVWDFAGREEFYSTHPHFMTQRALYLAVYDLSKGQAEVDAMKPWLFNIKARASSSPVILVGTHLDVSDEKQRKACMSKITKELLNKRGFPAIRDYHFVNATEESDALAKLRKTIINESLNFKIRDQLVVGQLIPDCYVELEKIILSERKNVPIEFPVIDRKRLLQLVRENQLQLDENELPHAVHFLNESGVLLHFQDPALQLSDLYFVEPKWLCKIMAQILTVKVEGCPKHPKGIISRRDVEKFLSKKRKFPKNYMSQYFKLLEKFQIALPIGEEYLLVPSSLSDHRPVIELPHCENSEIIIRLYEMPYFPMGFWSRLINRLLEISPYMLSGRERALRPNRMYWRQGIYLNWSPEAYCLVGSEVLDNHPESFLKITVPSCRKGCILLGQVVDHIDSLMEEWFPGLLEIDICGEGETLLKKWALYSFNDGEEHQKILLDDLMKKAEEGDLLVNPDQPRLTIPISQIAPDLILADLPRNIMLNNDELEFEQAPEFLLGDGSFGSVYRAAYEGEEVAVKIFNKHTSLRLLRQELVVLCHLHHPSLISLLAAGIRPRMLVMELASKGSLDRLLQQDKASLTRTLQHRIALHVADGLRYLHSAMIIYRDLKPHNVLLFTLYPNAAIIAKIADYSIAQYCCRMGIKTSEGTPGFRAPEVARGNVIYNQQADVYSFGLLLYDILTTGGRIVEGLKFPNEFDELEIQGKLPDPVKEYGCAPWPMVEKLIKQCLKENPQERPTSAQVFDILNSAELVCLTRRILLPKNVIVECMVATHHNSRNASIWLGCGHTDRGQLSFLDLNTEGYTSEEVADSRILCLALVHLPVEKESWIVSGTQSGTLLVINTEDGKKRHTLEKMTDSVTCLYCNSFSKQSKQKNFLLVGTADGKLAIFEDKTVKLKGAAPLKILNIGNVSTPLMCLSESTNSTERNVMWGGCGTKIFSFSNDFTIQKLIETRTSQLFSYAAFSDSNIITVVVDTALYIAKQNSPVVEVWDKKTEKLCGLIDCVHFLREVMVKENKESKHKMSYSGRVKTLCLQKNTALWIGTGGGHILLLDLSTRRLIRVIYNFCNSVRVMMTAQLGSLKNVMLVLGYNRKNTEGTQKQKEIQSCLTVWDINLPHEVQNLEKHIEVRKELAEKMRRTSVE
In short: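 Purified human LRRK2 G2019S (16 ng) with 25 μM ATP and 0.2 μg substrate, 2 h at 25° C. in Tris-HCl pH 7.4, MgCl2, BSA, DTT buffer; compounds at 12 final concentrations, 50 μM down to 0.000001024 μM. ADP-Glo luminescence versus solvent control gave IC50.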

T1 sequence (P49759 129-484 limits assumed): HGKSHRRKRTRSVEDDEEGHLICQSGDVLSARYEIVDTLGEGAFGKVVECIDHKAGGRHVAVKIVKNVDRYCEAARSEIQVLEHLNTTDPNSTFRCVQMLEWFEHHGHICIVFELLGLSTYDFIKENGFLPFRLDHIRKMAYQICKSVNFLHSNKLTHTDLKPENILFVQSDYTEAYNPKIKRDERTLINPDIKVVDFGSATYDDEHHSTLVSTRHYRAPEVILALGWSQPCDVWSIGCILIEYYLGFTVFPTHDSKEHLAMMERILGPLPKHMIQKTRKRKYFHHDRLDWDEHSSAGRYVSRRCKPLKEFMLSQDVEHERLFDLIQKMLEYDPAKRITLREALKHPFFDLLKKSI

| SMILES | IC50 (human GST-CLK1) [nM] | IC50 (human GST-DYRK1A) [nM] | IC50 (LRRK2 (G2019S)) [nM] |
| --- | --- | --- | --- |
| COc1cc(S(C)(=O)=O)ccc1Nc1nc(NCC(C)C)c2cc[nH]c2n1 [Example 12, N^4-isobutyl-N^2-(2-methoxy-4-(methylsulfonyl)phenyl)-7H-pyrrolo[2,3-d]pyrimidine-2,4-diamine 2,2,2-trifluoroacetate] | 301 to 1000 | 301 to 1000 | < 100 |
| N#Cc1c[nH]c2nc(Nc3ccc(C(=O)N4CC(CO)(CO)C4)c4c3OCCO4)nc(NC3CC3)c12 [Example 332, 2-((8-(3,3-bis (hydroxymethyl)azetidine-1-carbonyl)-2,3-dihydrobenzo[b] [1,4]dioxin-5-yl)amino)-4-(cyclopropyl-amino)-7H-pyrrolo[2,3-d]pyrimidine-5-carbonitrile] | < 100 | 301 to 1000 | 101 to 300 |
| CC[C@H](C)Nc1nc(Nc2ccc(S(=O)(=O)N3CCOCC3)cc2OC)nc2[nH]ccc12 [Example 60, (S)-N^4-(sec-butyl)-N^2-(2-methoxy-4-(morpholinosulfonyl)phenyl)-7H-pyrrolo[2,3-d]pyrimidine-2,4-diamine] | 301 to 1000 | 301 to 1000 | 101 to 300 |
| COc1cc(S(C)(=O)=O)ccc1Nc1nc(NCC2CC2)c2cc[nH]c2n1 [Example 33, N^4-(cyclopropylmethyl)-N^2-(2-methoxy-4-(methylsulfonyl)phenyl)-7H-pyrrolo[2,3-d]pyrimidine-2,4-diamine] | 301 to 1000 | 301 to 1000 | < 100 |
| O=C(c1ccc(Nc2nc(NC3CCOCC3)c3c(C(F)(F)F)c[nH]c3n2)c2c1CCO2)N1CCOCC1 [Example 456, morpholino(7-((4-((tetrahydro-2H-pyran-4-yl)amino)-5-(trifluoromethyl)-7H-pyrrolo[2,3-d]pyrimidin-2-yl)amino)-2,3-dihydrobenzo-furan-4-yl)methanone] | < 100 | 301 to 1000 | < 100 |
| CC[C@H](C)Nc1nc(Nc2ccc(C(=O)N3CCOCC3)c3c2OCCO3)nc2[nH]cc(C(F)(F)F)c12 [Example 381, (S)-(8-((4-(sec-butylamino)-5-(trifluoromethyl)-7H-pyrrolo[2,3-d]pyrimidin-2-yl)amino)-2,3-dihydrobenzo[b] [1,4]dioxin-5-yl)(morpholino) methanone] | 301 to 1000 | 301 to 1000 | < 100 |
| COCCNc1nc(Nc2ccc(C(=O)N3CCOCC3)c3c2OCCO3)nc2[nH]ccc12 [Example 46, (8-((4-((2-methoxyethyl)amino)-7H-pyrrolo[2,3-d]pyrimidin-2-yl)amino)-2,3-dihydrobenzo[b][1,4]dioxin-5-yl)(morpholino)methanone 2,2,2-trifluoroacetate] | 301 to 1000 | 301 to 1000 | < 100 |
| COc1cc(P2(=O)CCN(C3CC3)CC2)ccc1Nc1nc(NCC2CC2)c2c(C(F)(F)F)c[nH]c2n1 [Example 421, 1-cyclopropyl-4-(4-((4-((cyclo-propylmeth-yl)amino)-5-(trifluoromethyl)-7H-pyrrolo[2,3-d]pyrimidin-2-yl)amino)-3-methoxyphenyl)-1,4-azaphosphinane 4-oxide] | 301 to 1000 | 301 to 1000 | < 100 |
| COCC(C)(C)Nc1nc(Nc2ccc(S(=O)(=O)N3CCOCC3)cc2OC)nc2[nH]ccc12 [Example 34, N^4-(1-methoxy-2-methylpropan-2-yl)-N^2-(2-methoxy-4-(morpholinosulfonyl)phenyl)-7H-pyrrolo[2,3-d]pyrimidine-2,4-diamine] | 301 to 1000 | 301 to 1000 | < 100 |
| CC(C)Nc1nc(Nc2ccc(C(=O)N3CCOCC3)c3c2OCCO3)nc2[nH]ccc12 [Example 45, (8-((4-(isopropylamino)-7H-pyrrolo[2,3-d]pyrimidin-2-yl)amino)-2,3-dihydrobenzo[b][1,4]dioxin-5-yl)(morpholino)methanone 2,2,2-trifluoroacetate] | 301 to 1000 | 301 to 1000 | < 100 |
| O=C(c1ccc(Nc2nc(NCC3CCCC3)c3c(C(F)(F)F)c[nH]c3n2)c2c1OCCO2)N1CCN(C2COC2)CC1 [Example 425, (8-((4-((cyclo-pentylmeth-yl)amino)-5-(trifluoromethyl)-7H-pyrrolo[2,3-d]pyrimidin-2-yl)amino)-2,3-dihydrobenzo[b] [1,4]dioxin-5-yl) (4-(oxetan-3-yl)piperazin-1-yl)methanone] | 301 to 1000 | 301 to 1000 | < 100 |
| COc1cc(P(C)(C)=O)ccc1Nc1nc(NC2CCCC2)c2c(C(F)(F)F)c[nH]c2n1 [Example 387, (4-((4-(cyclo-pentylamino)-5-(trifluoromethyl)-7H-pyrrolo[2,3-d]pyrimidin-2-yl)amino)-3-methoxy-phenyl)di-methylphosphine oxide] | 301 to 1000 | 301 to 1000 | < 100 |
| CC(C)Nc1nc(Nc2ccc(C(=O)N3CCOCC3)c3c2OCC3)nc2[nH]cc(C(F)(F)F)c12 [Example 449, (7-((4-(isopropylamino)-5-(trifluoromethyl)-7H-pyrrolo[2,3-d]pyrimidin-2-yl)amino)-2,3-dihydrobenzo-furan-4-yl) (morpholino) methanone] | < 100 | 301 to 1000 | < 100 |
| COc1cc(S(C)(=O)=O)ccc1Nc1nc(NCC2CCCC2)c2cc[nH]c2n1 [Example 42, N^4-(cyclopentylmethyl)-N^2-(2-methoxy-4-(methylsulfonyl)phenyl)-7H-pyrrolo[2,3-d]pyrimidine-2,4-diamine 2,2,2-trifluoroaceate] | 301 to 1000 | 301 to 1000 | 101 to 300 |
| CS(=O)(=O)CCNc1nc(Nc2ccc(C(=O)N3CCN(C4COC4)CC3)c3c2OCCO3)nc2[nH]cc(C(F)(F)F)c12 [Example 427, (8-((4-((2-(methylsulfonyl)ethyl)amino)-5-(trifluoromethyl)-7H-pyrrolo[2,3-d]pyrimidin-2-yl)amino)-2,3-dihydrobenzo[b] [1,4]dioxin-5-yl) (4-(oxetan-3-yl)piperazin-1-yl)methanone] | < 100 | < 100 | < 100 |
| COc1cc(S(=O)(=O)N2CCOCC2)ccc1Nc1nc(NCC(C)C)c2cc[nH]c2n1 [Example 10, N^4-isobutyl-N^2-(2-methoxy-4-(morpholinosulfonyl)phenyl)-7H-pyrrolo[2,3-d]pyrimidine-2,4-diamine] | 301 to 1000 | 301 to 1000 | < 100 |
| O=C(c1ccc(Nc2nc(NC3CCOCC3)c3cc[nH]c3n2)c2c1OCCO2)N1CCOCC1 [Example 52, morpholino(8-((4-((tetrahydro-2H-pyran-4-yl)amino)-7H-pyrrolo[2,3-d]pyrimidin-2-yl)amino)-2,3-dihydrobenzo[b][1,4]dioxin-5-yl)methanone 2,2,2-trifluoroacetate] | 301 to 1000 | 301 to 1000 | < 100 |

Source: patent US20230066011A1, “PYRROLOPYRIMIDINE DERIVATIVE, AND PHARMACEUTICAL COMPOSITION FOR PREVENTING OR TREATING PROTEIN KINASE-RELATED DISEASE COMPRISING SAME AS ACTIVE INGREDIENT” (VORONOI CO., LTD., priority 2019, published 2023)
